Measured values as given in ChEMBL document CHEMBL2439973, “Discovery of VU0409106: A negative allosteric modulator of mGlu5 with activity in a mouse model of anxiety” (Bioorg Med Chem Lett, 2013).

Assays:
[1] = molecular target: Metabotropic glutamate receptor 5 (Rattus norvegicus, UniProt P31424); assay: Negative allosteric modulation of rat mGlu5 receptor expressed in HEK293A cells assessed as inhibition of glutamate-induced calcium mobilization preincubated for 140 seconds prior to glutamate-stimulation measured after 60 seconds; assay type: functional, cell-based, HEK293-A
Sequence of Metabotropic glutamate receptor 5 (P31424 whole entry): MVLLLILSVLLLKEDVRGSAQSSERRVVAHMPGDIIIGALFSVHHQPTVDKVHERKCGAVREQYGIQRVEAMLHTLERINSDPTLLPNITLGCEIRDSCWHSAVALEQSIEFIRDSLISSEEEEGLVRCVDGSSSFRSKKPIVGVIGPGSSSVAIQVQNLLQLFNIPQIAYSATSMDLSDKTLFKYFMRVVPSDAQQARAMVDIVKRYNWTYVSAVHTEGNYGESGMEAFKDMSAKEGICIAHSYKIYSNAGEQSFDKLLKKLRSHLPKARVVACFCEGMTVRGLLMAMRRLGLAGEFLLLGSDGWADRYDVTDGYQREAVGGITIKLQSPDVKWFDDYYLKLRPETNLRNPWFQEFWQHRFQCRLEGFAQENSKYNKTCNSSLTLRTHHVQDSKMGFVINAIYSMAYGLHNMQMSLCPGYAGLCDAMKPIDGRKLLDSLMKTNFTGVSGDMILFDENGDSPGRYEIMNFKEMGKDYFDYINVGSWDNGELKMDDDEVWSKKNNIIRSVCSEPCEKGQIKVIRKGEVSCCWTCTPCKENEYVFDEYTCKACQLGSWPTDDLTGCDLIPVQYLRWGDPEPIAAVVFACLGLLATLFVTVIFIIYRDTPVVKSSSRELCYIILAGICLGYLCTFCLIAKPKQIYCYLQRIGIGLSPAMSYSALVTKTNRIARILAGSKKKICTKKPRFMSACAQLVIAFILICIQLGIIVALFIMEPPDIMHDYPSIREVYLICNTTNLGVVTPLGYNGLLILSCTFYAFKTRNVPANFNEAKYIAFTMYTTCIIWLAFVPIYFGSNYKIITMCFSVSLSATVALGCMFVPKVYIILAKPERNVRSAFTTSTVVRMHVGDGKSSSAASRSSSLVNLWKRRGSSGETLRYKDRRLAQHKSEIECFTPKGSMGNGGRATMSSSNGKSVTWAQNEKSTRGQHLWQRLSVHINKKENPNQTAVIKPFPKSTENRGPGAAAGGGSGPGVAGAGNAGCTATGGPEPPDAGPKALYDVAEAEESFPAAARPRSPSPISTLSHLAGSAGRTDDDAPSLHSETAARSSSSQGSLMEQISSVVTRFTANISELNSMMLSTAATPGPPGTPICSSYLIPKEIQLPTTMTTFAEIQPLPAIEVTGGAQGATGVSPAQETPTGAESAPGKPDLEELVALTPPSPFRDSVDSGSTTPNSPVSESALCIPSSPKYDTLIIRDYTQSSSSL

Cytochrome P450 3A4 = Cytochrome P450 3A4 (Homo sapiens, UniProt P08684); assay: Inhibition of CYP3A4 in human liver microsomes in presence of NADPH; assay type: ADME, Microsome
Sequence of Cytochrome P450 3A4 (P08684 whole entry): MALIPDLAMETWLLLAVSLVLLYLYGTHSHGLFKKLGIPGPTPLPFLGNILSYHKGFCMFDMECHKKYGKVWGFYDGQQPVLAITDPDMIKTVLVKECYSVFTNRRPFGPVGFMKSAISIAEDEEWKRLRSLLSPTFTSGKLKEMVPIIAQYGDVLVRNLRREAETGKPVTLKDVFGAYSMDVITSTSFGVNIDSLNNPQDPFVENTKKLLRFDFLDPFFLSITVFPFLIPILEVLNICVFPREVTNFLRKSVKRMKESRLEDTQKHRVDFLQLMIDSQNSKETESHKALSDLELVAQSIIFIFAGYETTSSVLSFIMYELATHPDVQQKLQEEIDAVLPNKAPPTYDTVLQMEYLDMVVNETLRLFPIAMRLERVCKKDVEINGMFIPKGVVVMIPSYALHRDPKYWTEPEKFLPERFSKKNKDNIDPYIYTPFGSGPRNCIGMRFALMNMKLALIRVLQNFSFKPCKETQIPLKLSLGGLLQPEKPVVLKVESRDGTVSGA

Brain [2] = assay: Fraction unbound in mouse brain homogenates by equilibrium dialysis technique; assay type: ADME, tissue-based; conditions: brain homogenate
[3] = molecular target: Metabotropic glutamate receptor 5 (Rattus norvegicus) (UniProt P31424); assay: Negative allosteric modulation of rat mGlu5 receptor expressed in HEK293A cells assessed as inhibition of glutamate-induced calcium mobilization at 30 uM preincubated for 140 seconds prior to glutamate-stimulation measured after 60 seconds relative to glutamate; assay type: functional, cell-based; conditions: HEK293-A
Sequence of Metabotropic glutamate receptor 5 (Rattus norvegicus) (P31424 21-1203 limits assumed): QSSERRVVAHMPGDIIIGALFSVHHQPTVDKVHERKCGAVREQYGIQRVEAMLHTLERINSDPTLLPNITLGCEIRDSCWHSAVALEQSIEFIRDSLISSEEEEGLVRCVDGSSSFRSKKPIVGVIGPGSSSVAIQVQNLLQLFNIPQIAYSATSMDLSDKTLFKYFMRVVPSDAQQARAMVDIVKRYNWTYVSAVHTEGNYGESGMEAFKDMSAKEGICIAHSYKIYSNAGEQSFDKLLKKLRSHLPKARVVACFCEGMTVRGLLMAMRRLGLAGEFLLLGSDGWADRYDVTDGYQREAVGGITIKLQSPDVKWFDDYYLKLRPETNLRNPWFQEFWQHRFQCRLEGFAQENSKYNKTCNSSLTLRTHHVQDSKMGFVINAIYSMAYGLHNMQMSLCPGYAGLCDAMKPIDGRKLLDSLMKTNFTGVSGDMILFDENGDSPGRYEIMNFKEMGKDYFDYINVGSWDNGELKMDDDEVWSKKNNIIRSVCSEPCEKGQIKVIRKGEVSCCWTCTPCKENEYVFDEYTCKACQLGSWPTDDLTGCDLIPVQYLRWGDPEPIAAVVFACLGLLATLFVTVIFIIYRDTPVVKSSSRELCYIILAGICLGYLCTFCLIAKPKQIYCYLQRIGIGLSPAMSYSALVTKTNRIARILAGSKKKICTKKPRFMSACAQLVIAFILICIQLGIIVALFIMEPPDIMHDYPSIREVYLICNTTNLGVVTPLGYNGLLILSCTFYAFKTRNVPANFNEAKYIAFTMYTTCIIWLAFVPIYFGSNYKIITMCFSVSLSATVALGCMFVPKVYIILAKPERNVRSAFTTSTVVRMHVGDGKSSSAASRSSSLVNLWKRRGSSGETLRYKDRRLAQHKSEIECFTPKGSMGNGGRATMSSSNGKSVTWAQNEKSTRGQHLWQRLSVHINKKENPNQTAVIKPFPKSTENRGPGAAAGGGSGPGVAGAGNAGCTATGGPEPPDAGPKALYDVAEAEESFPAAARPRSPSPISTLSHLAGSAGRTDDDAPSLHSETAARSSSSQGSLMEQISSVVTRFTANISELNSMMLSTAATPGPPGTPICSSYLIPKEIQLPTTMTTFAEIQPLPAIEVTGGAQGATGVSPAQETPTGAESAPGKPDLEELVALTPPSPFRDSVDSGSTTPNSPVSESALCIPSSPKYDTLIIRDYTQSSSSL

[4] = Ratio of drug level in brain to plasma in CD-1 mouse at 10 mg/kg, ip by LC-MS/MS analysis; assay type: ADME, organism-based; parameters: dose 10 mg/kg, route intraperitoneal; conditions: brain and plasma, read-out: BPR
Brain [5] = assay: AUC in CD-1 mouse brain at 10 mg/kg, ip by LC-MS/MS analysis; assay type: ADME, organism-based; parameters: dose 10 mg/kg, route intraperitoneal; conditions: in vivo
Plasma [6] = assay: AUC in CD-1 mouse plasma at 10 mg/kg, ip by LC-MS/MS analysis; assay type: ADME, organism-based; parameters: dose 10 mg/kg, route intraperitoneal; conditions: in vivo
[7] = Cmax in CD-1 mouse brain at 10 mg/kg, ip by LC-MS/MS analysis; assay type: ADME, organism-based; parameters: dose 10 mg/kg, route intraperitoneal
Brain [8] = assay: Tmax in CD-1 mouse brain at 10 mg/kg, ip by LC-MS/MS analysis; assay type: ADME, organism-based; parameters: dose 10 mg/kg, route intraperitoneal; conditions: in vivo
Plasma [9] = assay: Cmax in CD-1 mouse plasma at 10 mg/kg, ip by LC-MS/MS analysis; assay type: ADME, organism-based; parameters: dose 10 mg/kg, route intraperitoneal; conditions: in vivo
Plasma [10] = assay: Tmax in CD-1 mouse plasma at 10 mg/kg, ip by LC-MS/MS analysis; assay type: ADME, organism-based; parameters: dose 10 mg/kg, route intraperitoneal; conditions: in vivo

| %max [3] [%] | Structure (SMILES) | IC50 [1] [µM] | also measured |
| --- | --- | --- | --- |
| – | O=C(Nc1ccc(F)cn1)c1cccc(Oc2cccnc2)c1 | 3.78 | – |
| – | Cc1csc(NC(=O)c2cc(Cl)cc(Oc3cncnc3)c2)n1 | – | IC50 (Cytochrome P450 3A4): 2.2 µM; Fu (Brain [2]): 0.025 |
| – | Cc1cc(NC(=O)c2cc(Cl)cc(Oc3cncnc3)c2)ncc1F | 3.25 | – |
| 1.6 | Cc1cccc(NC(=O)c2cc(Cl)cc(Oc3cnc(C)nc3)c2)n1 | 0.096 | – |
| – | Cc1nc(NC(=O)c2cc(Cl)cc(Oc3cncnc3)c2)ccc1F | 0.05 | – |
| – | O=C(Nc1cccc(F)n1)c1cc(Cl)cc(Oc2cncnc2)c1 | – | IC50 (Cytochrome P450 3A4): < 0.1 µM; Fu (Brain [2]): 0.057 |
| – | Cc1cccc(NC(=O)c2cc(Cl)cc(Oc3cncnc3)c2)n1 | – | IC50 (Cytochrome P450 3A4): 4.3 µM; Fu (Brain [2]): 0.052 |
| 1.1 | O=C(Nc1ccc(F)cn1)c1cc(Cl)cc(Oc2cncc(F)c2)c1 | 0.025 | IC50 (Cytochrome P450 3A4): 1.3 µM; Fu (Brain [2]): 0.007 |
| – | Cc1cc(Oc2cncnc2)cc(C(=O)Nc2ccc(F)cn2)c1 | 0.019 | – |
| 1.4 | Cc1cccc(NC(=O)c2cccc(Oc3cccnc3)c2)c1 | 2.19 | – |
| – | O=C(Nc1ccc(F)cn1)c1cc(Cl)cc(Oc2cncnc2)c1 | – | Kp [4]: 0.93; AUC (Brain [5]): 365 ng·h/g; AUC (Plasma [6]): 0.391 µg·h/mL; Cmax [7]: 311 ng/g; Tmax (Brain [8]): 15 min; Cmax (Plasma [9]): 0.303 µg/mL; Tmax (Plasma [10]): 30 min; IC50 (Cytochrome P450 3A4): 6.2 µM; Fu (Brain [2]): 0.08 |
| – | Cc1nc(NC(=O)c2cc(F)cc(Oc3cncnc3)c2)sc1F | 0.054 | – |
| 1.3 | Nc1cc(NC(=O)c2cccc(Cl)c2)cc(Oc2cccnc2)c1 | 0.284 | – |
| – | O=C(Nc1ccc(F)c(C(F)F)n1)c1cc(Cl)cc(Oc2cncnc2)c1 | 0.502 | – |
| – | Cc1csc(NC(=O)c2cccc(Oc3cncnc3)c2)n1 | 0.205 | – |
| 2.6 | Cc1ncc(Oc2cc(Cl)cc(C(=O)Nc3ccc(F)cn3)c2)cn1 | 4.47 | – |
| – | Cc1csc(NC(=O)c2cccc(Oc3cccnc3)c2)n1 | 0.772 | – |
| 1.1 | N#Cc1cc(Oc2cncnc2)cc(C(=O)Nc2ccc(F)cn2)c1 | 0.318 | – |
| 1.6 | Cc1cccc(NC(=O)c2cc(Cl)cc(Oc3cncc(C#N)c3)c2)n1 | 0.01 | – |
| – | O=C(Nc1nccs1)c1cc(F)cc(Oc2cncnc2)c1 | 1.79 | – |
| – | O=C(Nc1nc(C(F)F)cs1)c1cc(Cl)cc(Oc2cncnc2)c1 | 0.31 | – |
| 1.7 | N#Cc1cncc(Oc2cc(Cl)cc(C(=O)Nc3ccc(F)cn3)c2)c1 | 0.027 | IC50 (Cytochrome P450 3A4): 1.7 µM; Fu (Brain [2]): 0.016 |
| 1.7 | Cc1csc(NC(=O)c2cc(Oc3cncnc3)cc(C(F)(F)F)c2)n1 | 0.283 | – |
| – | O=C(Nc1ccc(Cl)cn1)c1cc(Cl)cc(Oc2cncnc2)c1 | 0.103 | – |
| – | O=C(Nc1cccc(Cl)n1)c1cc(Cl)cc(Oc2cncnc2)c1 | – | IC50 (Cytochrome P450 3A4): 1.9 µM; Fu (Brain [2]): 0.019 |
| – | COc1cccc(NC(=O)c2cc(F)cc(Oc3cncnc3)c2)n1 | 0.668 | – |
| 1.6 | O=C(Nc1cccc(Cl)c1)c1cccc(Oc2cccnc2)c1 | 1.96 | – |
| – | CCc1ccnc(NC(=O)c2cc(Cl)cc(Oc3cncnc3)c2)c1 | 4.45 | – |
| 1.8 | Cc1cccc(NC(=O)c2cc(Cl)cc(Oc3cncc(F)c3)c2)n1 | 0.0075 | IC50 (Cytochrome P450 3A4): 0.7 µM; Fu (Brain [2]): 0.003 |
| 3.2 | O=C(Nc1ccc(F)cn1)c1cc(Oc2cncnc2)cc(C(F)(F)F)c1 | 5.53 | – |
